1 molecule from patent US20230041980A1, “METHOD OF PROTECTING A RESPIRATORY TRACT OR A LUNG FROM DAMAGE, METHOD OF PROTECTING A LUNG FROM PRESSURE DAMAGE INDUCED BY A VENTILATOR, METHOD OF SUPPRESSING SPREAD OF INFECTION WITH VIRUSES OR BACTERIA THAT CAUSE PNEUMONIA IN PULMONARY BRONCHIAL EPITHELIAL CELLS OR ALVEOLAR EPITHELIAL CELLS, AND …” (NEXT21 KABUSHIKI KAISHA, priority 2020, published 2023) can be followed below.

In experiment [1] the test system is Asthma model mice. As to the kind of experiment: Airway resistance and compliance of OVA asthma model mice. Format: in vivo, BALB/c mice. Particulars: versus amount of muscarine receptor stimulant, inhalation, compared with OVA/OVA. As to the method: (§1) Asthma model mice were produced using BALB/c mice (8 to 10 weeks old) and ovalbumin (OVA) serving as an antigen, and examinations were conducted by administering trehalose by inhalation. On the first day and the fourteenth day, a physiological saline solution or OVA was intraperitoneally administered. 20 micrograms of OVA was administered to one mouse using aluminum hydroxide as an adjuvant. From the twenty-seventh day to the thirty-first day, 10% trehalose or distilled water was administered by inhalation for 20 minutes every day. Moreover, from the twenty-eighth day to the thirtieth day, a physiological saline solution or 1% OVA was administered by inhalation for 20 minutes, 1 to 1.5 hours after the above-mentioned inhalation. On the thirty-second day, evaluation was conducted using an assay system for evaluating allergic airway inflammation and hyperresponsive airway.
The airway resistance and the compliance of the model mice of Example 1 were measured. […] On the other hand, FIGS. 2A and 2B also show the results of the experiment in which lactose was used instead of trehalose (OVA/OVA+Lac).

For experiment [2], the system named is Asthma model mice. As to the kind of experiment: Numbers of inflammation-inducing cells in bronchoalveolar lavage fluid. It counts as in vivo, BALB/c mice. Particulars: inhalation; compared with OVA/OVA; FIG. 4. The procedure: as §1, with “airway. Bronchoalveolar lavage was performed on the model mice of Example 1, and the numbers of various cells obtained through the bronchoalveolar lavage were compared and examined. It should be noted that, in this example, 0.5 mL of a physiological saline solution containing 50 μg of ovalbumin (OVA) and 1 mg of aluminum hydroxide gel serving as an adjuvant was administered to OVA-administration mice (OVA/OVA) […]. […]” for “airway.”

For `OC[C@H]1O[C@@H](O[C@H]2[C@H](O)[C@@H](O)C(O)O[C@@H]2CO)[C@H](O)[C@@H](O)[C@H]1O` (stereo partly drawn) [lactose, reference compound], in the experiment on Asthma model mice [1] (FIG. 2A), the airway resistance entry was “does not have an action of suppressing an increase in the airway resistance”. In the experiment on Asthma model mice [1] (FIG. 2B), the compliance entry is “not different from each other”. In addition, the “numbers of inflammation-inducing cells in bronchoalveolar lavage fluid (Total, Mo, Ly, Eo, Nt)” value in the experiment on Asthma model mice [2] is recorded as “does not have an action of suppressing the release of inflammation-inducing cells”.
